In PubChem BioAssay (NCI):
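48-hour exposure; five concentrations; linearly interpolated endpoints. TGI is the concentration that stops growth completely.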 Where a SMILES comes first, the peptide text is derived from it. The star is where a group is joined. Cbz = O=C(OCc1ccccc1)*; NHNH2 = NN*

What was measured:
Experiment in all cases: DTP human tumour cell line panel, 48 h
786-0 renal = test system: 786-0 renal
A498 renal = test system: A498 renal
A549 NSCLC = test system: A549 NSCLC
ACHN renal = test system: ACHN renal
BT-549 breast = test system: BT-549 breast
COLO 205 colon = test system: COLO 205 colon
EKVX NSCLC = test system: EKVX NSCLC
HCC-2998 colon = test system: HCC-2998 colon
HCT-116 colon = test system: HCT-116 colon
HCT-15 colon = test system: HCT-15 colon
HL-60(TB) leukemia = test system: HL-60(TB) leukemia
HOP-62 NSCLC = test system: HOP-62 NSCLC
HOP-92 NSCLC = test system: HOP-92 NSCLC
HS 578T breast = test system: HS 578T breast
HT29 colon = test system: HT29 colon
IGROV1 ovarian = test system: IGROV1 ovarian
K-562 leukemia = test system: K-562 leukemia
KM12 colon = test system: KM12 colon
M14 melanoma = test system: M14 melanoma
MALME-3M melanoma = test system: MALME-3M melanoma
MCF7 breast = test system: MCF7 breast
MDA-MB-231 breast = test system: MDA-MB-231 breast
MDA-N = test system: MDA-N
MOLT-4 leukemia = test system: MOLT-4 leukemia
NCI-H226 lung = test system: NCI-H226 lung
NCI-H460 lung = test system: NCI-H460 lung
OVCAR-5 ovarian = test system: OVCAR-5 ovarian
OVCAR-8 ovarian = test system: OVCAR-8 ovarian
PC-3 prostate = test system: PC-3 prostate
RPMI-8226 leukemia = test system: RPMI-8226 leukemia
SK-MEL-2 melanoma = test system: SK-MEL-2 melanoma
SK-MEL-28 melanoma = test system: SK-MEL-28 melanoma
SK-MEL-5 melanoma = test system: SK-MEL-5 melanoma
SN12C renal = test system: SN12C renal
SNB-19 CNS = test system: SNB-19 CNS
SNB-75 CNS = test system: SNB-75 CNS
SR leukemia = test system: SR leukemia
SW-620 colon = test system: SW-620 colon
TK-10 renal = test system: TK-10 renal
U251 CNS = test system: U251 CNS
UACC-257 melanoma = test system: UACC-257 melanoma
UACC-62 melanoma = test system: UACC-62 melanoma
UO-31 renal = test system: UO-31 renal
CAKI-1 renal = test system: CAKI-1 renal
CCRF-CEM leukemia = test system: CCRF-CEM leukemia
DU-145 prostate = test system: DU-145 prostate
LOX IMVI melanoma = test system: LOX IMVI melanoma
MDA-MB-435 = test system: MDA-MB-435
NCI-H23 lung = test system: NCI-H23 lung
NCI-H522 lung = test system: NCI-H522 lung
NCI/ADR-RES ovarian = test system: NCI/ADR-RES ovarian
OVCAR-3 ovarian = test system: OVCAR-3 ovarian
OVCAR-4 ovarian = test system: OVCAR-4 ovarian
RXF 393 renal = test system: RXF 393 renal
SF-268 CNS = test system: SF-268 CNS
SF-295 CNS = test system: SF-295 CNS
SF-539 CNS = test system: SF-539 CNS
SK-OV-3 ovarian = test system: SK-OV-3 ovarian
T-47D breast = test system: T-47D breast

Measured: TGI

CCOC(=O)CCC(NC(=O)OCc1ccccc1)C(=O)NC(CCC(=O)OCC)C(=O)NN (stereo not given) (Cbz-Glu(OEt)-Glu(OEt)-NHNH2; configuration not given here)
not listed: CAKI-1 renal | CCRF-CEM leukemia | DU-145 prostate | LOX IMVI melanoma | MDA-MB-435 | NCI-H23 lung | NCI-H522 lung | NCI/ADR-RES ovarian | OVCAR-3 ovarian | OVCAR-4 ovarian | RXF 393 renal | SF-268 CNS | SF-295 CNS | SF-539 CNS | SK-OV-3 ovarian | T-47D breast
> 100 µM: all other assays above

C=CCCCCOC1C=CC(O)C(CO)O1 (stereo not given)
not listed: SNB-75 CNS | SR leukemia
> 100 µM: all other assays above
